# From patent US9163040B2, “Substituted bisphenyl butanoic phosphonic acid derivatives as NEP inhibitors” (NOVARTIS AG, priority 2013, dated 2015)
# What was measured:
# [1] = system: Aβ(1-40) peptide concentrations in cerebrospinal fluid; assay: Aβ model: CSF Aβ after oral dosing, related to plasma ANP increase by exposure-response regression; format: in vivo, rat; conditions: rats, p.o.; for CSF Aβ (% vehicle control): 5 hr post-dosing; for fold higher % increases in CSF Aβ compared with Example 1: plasma ANP 200 to 240% of baseline
# Description: The relative CNS and peripheral therapeutic activities of NEP inhibitors were evaluated in two nonclinical animal models. Compounds or their vehicle were administered orally to conscious rats, and either the increase in Aβ(1-40) peptide concentrations in cerebrospinal fluid (CSF; “Aβ model”) or the increase in plasma levels of the NEP substrate, atrial natriuretic peptide (ANP; “ANP potentiation model”) were determined. Thus, NEP inhibitors that elicit no or small increases in CSF Aβ at a given increase in plasma ANP may have an advantage over ones that trigger large elevations in Aβ.
# CNS effects of NEP inhibitors were assessed in a different rat model (“Aβ model”). In this study, we have measured cerebrospinal fluid (CSF) levels of Aβ as a sensitive indicator of CNS Aβ concentrations (Kwasi G. Mawuenyega, 2010, Science, Vol 330, 1774)).
# Experiments were conducted in naïve adult, male, WH rats purchased from Charles River Labs (body weights: 495±53 g, mean±SD; age: 8.5-12 months) that were housed and fed as described above. Rats were treated by oral gavage with 1 mL/kg of vehicle (0.5% methylcellulose+0.1% Tween 80) or a selected dose of NEP inhibitor between 7:30 and 10:00 am. Five hours later, rats were anesthetized with isoflurane, a laparotomy was performed, and an abdominal aortic blood sample was obtained on EDTA. Blood samples were centrifuged at 4° C. and 20 K g to separate plasma. Plasma samples were aliquoted and frozen (−70° C.) for later analysis of plasma compound levels. After exsanguination of the rat, the skin and muscle overlying the cisterna magna were retracted. A sample of CSF was collected by direct needle puncture through the exposed dura into the cisterna magna. CSF was transferred to pre-chilled (on ice) low-binding tubes (Protein LoBind tubes, 1.5 mL, Order No. 022431081, Eppendorf) using low-binding pipette tips (VWR Catalog #37001-164) as quickly as possible to minimize Aβ aggregation and adherence to the devices. CSF samples were frozen (−70° C.) for later analysis of Aβ levels
# Aβ40 in CSF was quantified using the MesoScale Discovery (MSD, Gaithersburg, Md.) 96-well MULTI-ARRAY Human/Rodent (4G8) Aβ40 Ultra-Sensitive Kit (K110FTE-2). The assay was done according to the manufacturer's instructions except for the standard curve and the sample preparation. A-10 μL aliquot of each CSF sample was mixed with 190 μL 1% BSA/1× Tris solution (“Blocker A” from kit) for a 1:20 CSF dilution. Synthetic Aβ1-40 peptide (from kit) was serially diluted in 1% BSA/1× Tris solution to obtain standards from 10,000-10 pg/mL for an 8-point standard curve.
# MSD MULTI-SPOT Aβ40 peptide plates from the kit were incubated for 1 hour after pipetting 150 μL/well 1% BSA/1× Tris solution. The plates were washed 3 times with 400 μL 1× Tris wash buffer (from kit) using a BioTek EL406 automated plate washer (Winooski, Vt.). For CSF samples and standards, 25 μL of a 1×SULFO-TAG 4G8 detection antibody/1× “Blocker G”/1% BSA/1× Tris solution (“detection antibody solution” from kit) was pipetted into the plate. CSF samples and standards were pipetted at 25 μL/well into the plates immediately following detection antibody solution additions. The plates were incubated for 2 hours and washed 3 times with 400 μL 1× Tris wash buffer using the EL406 automated plate washer. “Read buffer T” (from kit), 1×150 μL/well, was pipetted into the plates. The MSD plates were read immediately on the MSD SECTOR Imager 6000 reader.
# Standards were assayed in triplicate. CSF samples were assayed in duplicate. Curve fitting, back-calculation, % recovery, and interpolation of sample concentrations were performed using MSD DISCOVERY WORKBENCH Data Analysis Tools 3.0 Software. Signal generated by the standards was plotted and fit using the 4-parameter logistical curve fitting option with a 1/y^2 weighting function. Sample pg/mL concentrations were interpolated from the fit curve. […]
# [2] = target: recombinant human neutral endopeptidase (Homo sapiens (Human), UniProt P08473); assay: in vitro inhibition of recombinant human neutral endopeptidase (fluorescence lifetime assay); format: biochemical; conditions: 1 hour pre-incubation, read after 1 hour at room temperature, pH 7.4; read-out: Human NEP IC50
# Text: The activity of a compound according to the present invention can be assessed by the following in vitro and in vivo methods and/or by the following in vitro and in vivo methods well-described in the art. See Doering K, Meder G, Hinnenberger M, Woelcke J, Mayr L M, Hassiepen U, (2009) “A fluorescence lifetime-based assay for protease inhibitor profiling on human kallikrein 7”, Biomol Screen, January; 14(1):1-9.
# In particular, the in vitro inhibition of recombinant human neutral endopeptidase can be determined as follows:
# Recombinant human neutral endopeptidase (expressed in insect cells and purified using standard methods, final concentration 7 pM) is pre-incubated with test compounds at various concentrations for 1 hour at room temperature in 10 mM sodium phosphate buffer at pH 7.4, containing 150 mM NaCl and 0.05% (w/v) CHAPS. The enzymatic reaction is started by the addition of a synthetic peptide substrate Cys(PT14)-Arg-Arg-Leu-Trp-OH to a final concentration of 0.7 μM. Substrate hydrolysis leads to an increase in fluorescence lifetime (FLT) of PT14 measured by means of a FLT reader as described by Doering et al. (2009) as referenced supra. The effect of the compound on the enzymatic activity was determined after 1 hour (t=60 min) incubation at room temperature. […]
# [3] = at plasma compound concentration corresponding to plasma ANP 200 % baseline
# [4] = at plasma compound concentration corresponding to plasma ANP 210 % baseline
# [5] = at plasma compound concentration corresponding to plasma ANP 220 % baseline
# [6] = at plasma compound concentration corresponding to plasma ANP 230 % baseline
# [7] = at plasma compound concentration corresponding to plasma ANP 240 % baseline
# recombinant human neutral endopeptidase, sequence (P08473 whole entry): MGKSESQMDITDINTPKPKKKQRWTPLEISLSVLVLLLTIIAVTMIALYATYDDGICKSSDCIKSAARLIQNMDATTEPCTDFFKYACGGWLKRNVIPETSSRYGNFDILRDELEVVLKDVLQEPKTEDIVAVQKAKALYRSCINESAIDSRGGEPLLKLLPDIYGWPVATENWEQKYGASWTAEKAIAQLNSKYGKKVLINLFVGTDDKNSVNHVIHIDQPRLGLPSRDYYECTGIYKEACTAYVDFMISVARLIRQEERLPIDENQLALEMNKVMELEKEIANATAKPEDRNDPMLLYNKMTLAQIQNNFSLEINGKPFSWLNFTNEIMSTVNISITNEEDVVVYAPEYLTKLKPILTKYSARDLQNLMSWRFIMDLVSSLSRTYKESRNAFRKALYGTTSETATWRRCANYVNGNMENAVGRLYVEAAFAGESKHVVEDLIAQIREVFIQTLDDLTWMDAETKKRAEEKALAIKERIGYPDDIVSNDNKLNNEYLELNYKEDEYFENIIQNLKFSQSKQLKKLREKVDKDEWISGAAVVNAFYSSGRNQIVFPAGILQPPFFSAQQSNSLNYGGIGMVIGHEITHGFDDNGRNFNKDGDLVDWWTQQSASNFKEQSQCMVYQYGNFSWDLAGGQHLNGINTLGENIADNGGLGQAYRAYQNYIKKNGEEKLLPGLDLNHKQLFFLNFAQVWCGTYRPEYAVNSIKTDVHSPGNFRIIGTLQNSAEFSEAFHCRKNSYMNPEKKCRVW
smiles,measurement,setting,value
CCOC(=O)C[C@@H](Cc1ccc(-c2cccc(Cl)c2)cc1)NC(=O)CCC(=O)O [Example 1-2 (WO2010/136493)],CSF Aβ (% vehicle control),[1]; [3],225 % vehicle control
same,CSF Aβ (% vehicle control),[1]; [4],242 % vehicle control
same,CSF Aβ (% vehicle control),[1]; [5],260 % vehicle control
same,CSF Aβ (% vehicle control),[1]; [6],211 % vehicle control
same,CSF Aβ (% vehicle control),[1]; [7],295 % vehicle control
same,fold higher % increases in CSF Aβ compared with Example 1,[1],5- to 9 fold
CCOC(=O)C[C@@H](Cc1ccc(-c2cc(Cl)ccc2F)cc1)NC(=O)CCC(=O)O [Example 1-17 (WO2010/136493)],CSF Aβ (% vehicle control),[1]; [3],156 % vehicle control
same,CSF Aβ (% vehicle control),[1]; [4],179 % vehicle control
same,CSF Aβ (% vehicle control),[1]; [5],202 % vehicle control
same,CSF Aβ (% vehicle control),[1]; [6],225 % vehicle control
same,CSF Aβ (% vehicle control),[1]; [7],248 % vehicle control
same,fold higher % increases in CSF Aβ compared with Example 1,[1],4 fold
CC(OC(=O)C[C@@H](Cc1ccc(-c2cc(Cl)ccc2F)cc1)NC(=O)CCP(=O)(O)O)OC(=O)OC1CCCCC1 (stereo partly drawn) [Example 1],CSF Aβ (% vehicle control),[1]; [3],114 % vehicle control
same,CSF Aβ (% vehicle control),[1]; [4],120 % vehicle control
same,CSF Aβ (% vehicle control),[1]; [5],126 % vehicle control
same,CSF Aβ (% vehicle control),[1]; [6],132 % vehicle control
same,CSF Aβ (% vehicle control),[1]; [7],139 % vehicle control
"O=C(O)C[C@@H](Cc1ccc(-c2cc(Cl)ccc2F)cc1)NC(=O)CCP(=O)(O)O [Example 2, (R)-4-(5′-chloro-2′-fluoro-[1,1′-biphenyl]-4-yl)-3-(3-phosphonopropanamido)butanoic acid]",IC50,[2],0.11 nM
